Assays:
P. putida LS46 [1] = experiment: Growth of P. putida LS46 in the presence of salicylic acid; type: cell-based, Pseudomonas putida; settings: salicylic acid at 10 mM
Experimental: (§1) Salicylic acid has been used as an inhibitor of β-oxidation in plant, animal, and bacterial cells. […] Salicylic acid at 10 mM inhibited P. putida LS46 growth. Therefore, 1-5 mM concentration of salicylic acid was studied for its effect on mcl-PHA production by P. putida LS46. To separate volumes of Ramsey's liquid medium supplemented with 2% of glucose were added: (i) no salicylic acid (control), (ii) 1.0 nM salicylic acid, (iii) 2.5 mM salicylic acid, or (iv) 5.0 salicylic acid. After sterilization, the liquid media were dispensed into flasks which were then each inoculated with 1% inoculum of P. putida LS46, and then cultured for 48 h. Cultures were then harvested and their cdw, the percentage accumulation of mcl-PHAs in the cells, and the mol % monomer composition of C8 […] the mcl-PHAs were determined. […] 3-hydroxyoctanoate decreased, while 3-hydroxydecanoate increased, in the presence of 2.5 mM and 5.0 mM salicylic acid, compared with the control (Table 6).

P. putida LS46 [2] = experiment: Effects of salicylic acid on production of mcl-PHAs by P. putida LS46; type: cell-based, Pseudomonas putida; settings: 1.0 mM salicylic acid; Ramsey's medium + 2% glucose; 48 h
P. aeruginosa = settings: salicylic acid between 5 mM and 60 mM in growth medium; cited from earlier work
P. putida LS46 [3] = experiment: Effects of salicylic acid on production of mcl-PHAs by P. putida LS46; type: cell-based, Pseudomonas putida; settings: Ramsey's medium + 2% glucose, 48 h
Experimental: Six of the microbial isolates (i.e., LS1, LS5, LS33, LS34, LS39, LS46) that produced epifluorescence under UV illumination were separately cultured for 72 h in: (i) 200 mL LB broth, and (ii) 200 mL LB broth supplemented with 3 g/L glucose. The microbial cells were centrifuged at 4500 g for 20 min in a Sorvall RC6-Plus centrifuge. The microbial pellets were washed twice in 0.85% NaCl and then dried at 80° C. for 48 h. The intracellular PHA contents and PHA composition were determined by GC-MS following the method taught by Braunegg et al. (1978, Eur. J. Appl. Microbiol. Biotechnol. 6:29-37). Dried cells (20 mg) were mixed with 1 mL chloroform and 1 mL methanol containing 15% sulphuric acid. Benzoic acid (1 mg/mL) was used as an internal standard. The suspensions were refluxed at 100° C. for 4 h, after which, 0.5 ml of water were added to each suspension. The mixtures were centrifuged at 4000×g. The lower chloroform layers were separated and analyzed using a GC-MS fitted FID detector and aHP-5 capillary column. The initial oven temperature was set at 75° C. for 6 min and then was increased to 265° C. with a ramping rate of 20° C./min.
as §1, with “To separate volumes of Ramsey's liquid medium supplemented with 2% of glucose were added: (i) no salicylic acid (control), (ii) 1.0 nM salicylic acid, (iii) 2.5 mM salicylic acid, or (iv) 5.0 salicylic acid.” left out

Compound: O=C(O)c1ccccc1O [Salicylic acid, salicylic acid]
- growth of P. putida LS46 (P. putida LS46 [1]): inhibited
- 3-hydroxyalkanoate monomer content C6 (P. putida LS46 [2]): 3.97 mol %
- 3-hydroxyalkanoate monomer content C8 (P. putida LS46 [2]): 46.30 mol %
- PHA content (P. putida LS46 [2]): 26.07 % CDW
- monomer composition of mcl-PHAs produced by P. aeruginosa (P. aeruginosa): altered the monomer composition
- 3-hydroxyalkanoate monomer content C10 (P. putida LS46 [3]; 1.0 mM salicylic acid): 47.90 mol %
- 3-hydroxyalkanoate monomer content C12 (P. putida LS46 [3]; 1.0 mM salicylic acid): 1.91 mol %
- CDW (P. putida LS46 [3]; 1.0 mM salicylic acid): 3.08 g/L
- 3-hydroxyalkanoate monomer content C6 (P. putida LS46 [3]; 2.5 mM salicylic acid): 3.39 mol %
- 3-hydroxyalkanoate monomer content C8 (P. putida LS46 [3]; 2.5 mM salicylic acid): 44.06 mol %
- 3-hydroxyalkanoate monomer content C10 (P. putida LS46 [3]; 2.5 mM salicylic acid): 52.03 mol %
- 3-hydroxyalkanoate monomer content C12 (P. putida LS46 [3]; 2.5 mM salicylic acid): 0.93 mol %
- CDW (P. putida LS46 [3]; 2.5 mM salicylic acid): 2.89 g/L
- PHA content (P. putida LS46 [3]; 2.5 mM salicylic acid): 28.90 % CDW
- 3-hydroxyalkanoate monomer content C6 (P. putida LS46 [3]; 5.0 mM salicylic acid): 2.46 mol %
- 3-hydroxyalkanoate monomer content C8 (P. putida LS46 [3]; 5.0 mM salicylic acid): 42.49 mol %
- 3-hydroxyalkanoate monomer content C10 (P. putida LS46 [3]; 5.0 mM salicylic acid): 53.36 mol %
- 3-hydroxyalkanoate monomer content C12 (P. putida LS46 [3]; 5.0 mM salicylic acid): 0.66 mol %
- CDW (P. putida LS46 [3]; 5.0 mM salicylic acid): 2.64 g/L
- PHA content (P. putida LS46 [3]; 5.0 mM salicylic acid): 21.89 % CDW

Source: US20130288323A1, “MICROBIAL PRODUCTION OF POLYHYDROXYALKANOATES” (UNIVERSITY OF MANITOBA, priority 2010, published 2013)
